Assay results from patent US8329445B2, “Biosynthesis of phloroglucinol and preparation of 1,3-dihydroxybenzene therefrom” (Board of Trustees of Michigan State University, priority 2004, dated 2012).

How the values were obtained:
[1] = target: T1, 2-pyrone synthase (Gerbera hybrida, UniProt P48391); experiment: in vitro enzymology of purified 2-pyrone synthase; format: biochemical
T1 construct: made in house
T1 sequence (P48391 1-402): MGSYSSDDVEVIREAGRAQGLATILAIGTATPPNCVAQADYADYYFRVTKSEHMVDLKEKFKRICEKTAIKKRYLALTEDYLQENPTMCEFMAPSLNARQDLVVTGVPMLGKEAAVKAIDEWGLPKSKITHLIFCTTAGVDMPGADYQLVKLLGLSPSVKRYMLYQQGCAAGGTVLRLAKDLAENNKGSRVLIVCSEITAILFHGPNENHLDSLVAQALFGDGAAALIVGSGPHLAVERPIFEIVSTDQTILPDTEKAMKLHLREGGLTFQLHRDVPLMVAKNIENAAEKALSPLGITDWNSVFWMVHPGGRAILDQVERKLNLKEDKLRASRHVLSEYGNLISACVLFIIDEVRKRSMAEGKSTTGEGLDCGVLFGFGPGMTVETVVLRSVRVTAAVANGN
Excerpt: (§1) To further explore its role in phloroglucinol biosynthesis, PhlD is purified to homogeneity and its in vitro enzymology examined. No activity (Table 1) is observed when acetyl-CoA alone is employed as a substrate. […] For comparison, 2-pyrone synthase, which like PhlD employs an activated 3,5-diketohexanoate 2 (Scheme 1), is purified to homogeneity.

[2] = target: T2, PhlD (Pseudomonas fluorescens, UniProt Q4K418); experiment: in vitro enzymology of purified PhlD; format: biochemical, P. fluorescens Pf-5
T2 construct: made in house
T2 sequence (Q4K418 1-349): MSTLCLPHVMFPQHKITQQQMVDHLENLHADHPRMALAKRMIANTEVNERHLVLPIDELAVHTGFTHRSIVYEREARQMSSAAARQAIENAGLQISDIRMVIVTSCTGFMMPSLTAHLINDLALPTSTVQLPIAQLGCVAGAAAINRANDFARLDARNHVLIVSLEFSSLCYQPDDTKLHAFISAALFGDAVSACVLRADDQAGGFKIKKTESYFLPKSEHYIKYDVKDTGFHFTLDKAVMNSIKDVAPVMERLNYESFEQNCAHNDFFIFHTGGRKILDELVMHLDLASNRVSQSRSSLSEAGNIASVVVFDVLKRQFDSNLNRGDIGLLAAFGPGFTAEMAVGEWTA
Excerpt: as §1

[3] = test system: E. coli strains; experiment: end-product inhibition in fed-batch fermentation of phlD-expressing E. coli strains; format: cell-based; conditions: culture medium concentration; data not shown
Protocol: Plasmid pJA3.131A (Kan^R, lacI^Q, PT7-phlD, serA) is transfected into chromosomally serA^− E. coli strains BL21(DE3), W3110(DE3), and JWF1(DE3) [i.e. RB791serA^−(DE3)], and into strain KL3(DE3) [i.e. AB2834(serA::aroB)] (E. coli strains RB791 and AB2834 are available from the E. coli Genetic Stock Center, New Haven, Conn., USA). All DE3 strains are obtained by integration of λDE3 prophage into the cell chromosomes. Cells are cultured in fed-batch conditions under mineral salts and limited glucose.
In these tests, phloroglucinol accumulation for all strains stops increasing during the stationary (or maintenance) phase. For BL21 and W3110, the highest phloroglucinol concentration is achieved about 6 hours and about 12 hours, respectively, after initiation of induction, i.e. the first IPTG addition. End-product inhibition is also observed.

[4] = substrate: CC(C)(COP(=O)(O)OP(=O)(O)OC[C@H]1O[C@@H](n2cnc3c(N)ncnc32)[C@H](O)[C@@H]1OP(=O)(O)O)[C@@H](O)C(=O)NCCC(=O)NCCSC(=O)CC(=O)O; experiment: in vitro enzymology of purified PhlD; format: biochemical, P. fluorescens Pf-5; conditions: other: substrate of PhlD purified to homogeneity
Excerpt: as §1

[5] = substrate: CC(=O)SCCNC(=O)CCNC(=O)[C@H](O)C(C)(C)COP(=O)(O)OP(=O)(O)OC[C@H]1O[C@@H](n2cnc3c(N)ncnc32)[C@H](O)[C@@H]1OP(=O)(O)O; experiment: in vitro enzymology of purified 2-pyrone synthase; format: biochemical, Gerbera hybrida; conditions: other: substrate of 2-pyrone synthase purified to homogeneity
Excerpt: as §1

## CC(=O)SCCNC(=O)CCNC(=O)[C@H](O)C(C)(C)COP(=O)(O)OP(=O)(O)OC[C@H]1O[C@@H](n2cnc3c(N)ncnc32)[C@H](O)[C@@H]1OP(=O)(O)O [acetyl-CoA]
[1]; 2-pyrone synthase incubated with malonyl-CoA and acetyl-CoA
  specific activity with malonyl-CoA and acetyl-CoA relative to malonyl-CoA in the absence of acetyl-CoA: twofold higher
[1]; acetyl-CoA as a substrate of 2-pyrone synthase
  activity as substrate: unable to use acetyl-CoA as a substrate
[2]; PhlD incubated with malonyl-CoA and acetyl-CoA
  specific activity with malonyl-CoA and acetyl-CoA relative to only malonyl-CoA: Approximately equal
[2]; employed alone as a substrate of PhlD
  activity as substrate: No activity

## Oc1cc(O)cc(O)c1 [phloroglucinol, 1,3,5-trihydroxybenzene]
[3]
  concentration at which phloroglucinol is responsible for end-product inhibition: ≥ 2 g/L

## 2-pyrone synthase: 2-pyrone synthase from Gerbera hybrida, converts malonyl-CoA into triacetic acid lactone; comparison enzyme
[1]; 2-pyrone synthase purified to homogeneity
  kcat: 0.055 s⁻¹

B1: PhlD (Pseudomonas protegens Pf-5) (protein)
chain: T2 sequence (Q4K418 1-349)
notes: made in house
[4]
  Km: 37 µM

B2: PhlD: phloroglucinol synthase expressed from phlD gene of P. fluorescens Pf-5, SEQ ID NO:2 (protein)
chain: T2 sequence (Q4K418 1-349)
modifications: Pseudomonas fluorescens Pf-5
[2]; PhlD purified to homogeneity, malonyl-CoA substrate
  kcat: 0.0783 s⁻¹

B3: 2-pyrone synthase (Gerbera hybrid cultivar) (protein)
chain: T1 sequence (P48391 1-402)
notes: made in house
[5]
  Km: 2.2 µM
